Assay results from patent US12358897B2, “Compounds and method of treating COVID-19” (Pfizer Inc., priority 2020, dated 2025).

Assays:
[1] = target: T1, full-length SARS-CoV-2 3CL protease (Severe acute respiratory syndrome coronavirus 2, UniProt P0DTD1); experiment: SARS-CoV-2 Coronavirus 3C Protease FRET Assay (Dabcyl-KTSAVLQ-SGFRKME-Edans substrate); type: biochemical; settings: 15 nM enzyme, 25 μM peptide substrate, 60 minutes at 23° C.; Morrison equation fit; read-out: Geometric Mean Ki
T1 construct: measures the activity of full-length SARS-CoV-2 3CL protease

[2] = system: SARS-CoV-2 (USA_WA1/2020) in VeroE6 cells enriched for hACE2 expression; experiment: microbe, parasite or virus in culture; type: cell-based; settings: Severe acute respiratory syndrome coronavirus 2, Vero C1008, 72 h, read-out: Geometric Mean EC50

Work on COc1cccc2[nH]c(C(=O)N[C@@H](CC(C)C)C(=O)N[C@@H](C[C@@H]3CCNC3=O)C(=O)COC(=O)c3c(C)ncnc3C)cc12 [Example 71, (3S)-3-({N-[(4-methoxy-1H-indol-2-yl)carbonyl]-L-leucyl}amino)-2-oxo-4-[(3S)-2-oxopyrrolidin-3-yl]butyl 4,6-di methylpyrimidine-5-carboxylate] yielded a Ki [1] of 0.928 nM and an EC50 [2] of 315 nM.
With COc1cccc2[nH]c(C(=O)N[C@@H](CC(C)C)C(=O)N[C@@H](C[C@@H]3CCNC3=O)C(=O)COC(=O)C3(C)CCC3)cc12 [Example 14, (3S)-3-({N-[(4-methoxy-1H-indol-2-yl)carbonyl]-L-leucyl}amino)-2-oxo-4-[(3S)-2-oxopyrrolidin-3-yl]butyl 1-methylcyclobutanecarboxylate] the Ki [1] was 348 nM and the EC50 [2] was 505 nM.
In the case of COc1cccc2[nH]c(C(=O)N[C@@H](CC(C)C)C(=O)N[C@@H](C[C@@H]3CCNC3=O)C(=O)COC(=O)C(C)C)cc12 [Example 10, (3S)-3-({N-[(4-methoxy-1H-indol-2-yl)carbonyl]-L-leucyl}amino)-2-oxo-4-[(3S)-2-oxopyrrolidin-3-yl]butyl 2-methylpropanoate], the Ki [1] is reported as 63.7 nM and the EC50 [2] is reported as 205 nM.
Work on COc1cccc2[nH]c(C(=O)N[C@@H](CC(C)C)C(=O)N[C@@H](C[C@@H]3CCNC3=O)C(=O)COC(=O)c3c(C)cc(C#N)cc3C)cc12 [Example 65, (3S)-3-({N-[(4-methoxy-1H-indol-2-yl)carbonyl]-L-leucyl}amino)-2-oxo-4-[(3S)-2-oxopyrrolidin-3-yl]butyl 4-cyano-2,6-dimethylbenzoate] yielded a Ki [1] of 7.67 nM and an EC50 [2] of 51.3 nM.
COc1cccc2[nH]c(C(=O)N[C@@H](CC(C)C)C(=O)N[C@@H](C[C@@H]3CCNC3=O)C(=O)COC(=O)c3c(C)cccc3Cl)cc12 [Example 67, (3S)-3-({N-[(4-methoxy-1H-indol-2-yl)carbonyl]-L-leucyl}amino)-2-oxo-4-[(3S)-2-oxopyrrolidin-3-yl]butyl 2-chloro-6-methyl benzoate] was tested, and the Ki [1] was 8.82 nM and the EC50 [2] was 163 nM.
With COc1cccc2[nH]c(C(=O)N[C@@H](CC(C)C)C(=O)N[C@@H](C[C@@H]3CCNC3=O)C(=O)COC(=O)c3c(C)nc(C)nc3C)cc12 [Example 70, (3S)-3-({N-[(4-methoxy-1H-indol-2-yl)carbonyl]-L-leucyl}amino)-2-oxo-4-[(3S)-2-oxopyrrolidin-3-yl]butyl 2,4,6-trimethylpyrimidine-5-carboxylate] the Ki [1] was 5.89 nM and the EC50 [2] was 4800 nM.
COc1cccc2[nH]c(C(=O)N[C@@H](CC(C)C)C(=O)N[C@@H](C[C@@H]3CCNC3=O)C(=O)COC(=O)c3ccccc3CN(C)C)cc12 [Example 53, (3S)-3-({N-[(4-methoxy-1H-indol-2-yl)carbonyl]-L-leucyl}amino)-2-oxo-4-[(3S)-2-oxopyrrolidin-3-yl]butyl 2-[(dimethylamino)methyl]benzoate] was tested, and the Ki [1] was 14 nM and the EC50 [2] was 538 nM.
Compound COc1cccc2[nH]c(C(=O)N[C@@H](CC(C)C)C(=O)N[C@@H](C[C@@H]3CCNC3=O)C(=O)COC(=O)C3CCCCC3)cc12 [Example 12, (3S)-3-({N-[(4-methoxy-1H-indol-2-yl)carbonyl]-L-leucyl}amino)-2-oxo-4-[(3S)-2-oxopyrrolidin-3-yl]butyl cyclohexanecarboxylate] has a Ki [1] of 73.8 nM and an EC50 [2] of 109 nM.
